Data reported in PMC12426935, “On-Cell Saturation Transfer Difference NMR Spectroscopy on Ion Channels: Characterizing Negative Allosteric Modulator Binding Interactions of P2X7” (Journal of the American Chemical Society, 2025).
Like-named read-outs stand apart in the source and are kept apart here.

What was measured:
F103A hP2X7 = molecular target: T1, F103A hP2X7 (Homo sapiens, UniProt Q99572, F103A); experiment: fura-2 intracellular calcium assay on HEK-293 stable cell line expressing NAM-site mutant F103A hP2X7; assay type: cell-based; settings: for IC50: n = 3
T1 sequence (Q99572 1-595 F103A): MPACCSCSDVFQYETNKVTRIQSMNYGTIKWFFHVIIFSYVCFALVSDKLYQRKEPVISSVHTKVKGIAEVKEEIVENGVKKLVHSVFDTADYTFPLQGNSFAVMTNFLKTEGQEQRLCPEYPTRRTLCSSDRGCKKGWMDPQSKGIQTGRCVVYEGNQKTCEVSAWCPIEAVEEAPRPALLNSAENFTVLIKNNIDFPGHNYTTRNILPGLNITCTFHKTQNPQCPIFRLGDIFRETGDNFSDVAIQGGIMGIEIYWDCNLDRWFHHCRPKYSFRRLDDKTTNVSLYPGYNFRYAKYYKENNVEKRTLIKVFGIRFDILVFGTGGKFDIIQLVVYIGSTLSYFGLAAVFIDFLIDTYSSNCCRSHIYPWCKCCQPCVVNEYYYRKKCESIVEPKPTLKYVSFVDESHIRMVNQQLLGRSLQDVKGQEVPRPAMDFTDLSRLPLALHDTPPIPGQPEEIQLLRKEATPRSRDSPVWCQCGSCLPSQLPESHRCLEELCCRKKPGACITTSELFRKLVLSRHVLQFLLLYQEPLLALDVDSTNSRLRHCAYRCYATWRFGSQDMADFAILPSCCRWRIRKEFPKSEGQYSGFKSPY
Protocol: (§1) Transfection was performed using lipofectamine 2000 (Fisher Scientific), and cells were subjected to Geneticin (800 μg/mL) selection for 2–3 weeks. This was followed by single cell cloning by limiting dilution in 96-well plates. Individual clones were selected for further study based on ATP-induced TO-PRO-3 uptake on a BD Cytoflex flow cytometer. Cell lines were maintained in DMEM:F12 media supplemented with 10% fetal bovine serum (PanBiotech), penicillin and streptomycin (Fisher Scientific) and kept in a humidified incubator with 5% CO2. Stable P2X7-expressing cells were kept under Geneticin selection at a concentration of 400 μg/mL. Passaging was performed twice weekly using 0.25% Trypsin-EDTA (Fisher Scientific).
(§2) P2X7 responses were measured by monitoring intracellular calcium responses using fura-2AM loaded cells. Cells were plated at 2–2.5 × 10^4 cells/well the day before experiments in 96-well plates (NUNC) coated with 50 μg/mL poly-D-lysine (Merck Millipore). A loading buffer containing 2 μM fura-2AM (HelloBio) and 250 μM sulfinpyrazone (Merck Millipore) in a low divalent buffer (145 mM NaCl, 5 mM KCl, 0.2 mM CaCl2, 10 mM HEPES, 13 mM glucose, pH 7.3) was added to cells for 45 min at 37 °C. After loading, the buffer was removed and replaced with calcium-containing extracellular solution (145 mM NaCl, 5 mM KCl, 2 mM CaCl2, 10 mM HEPES, 13 mM glucose, pH 7.3). Responses were measured using a Flexstation 3 plate reader (Molecular Devices) with dual excitation wavelengths of 340 and 380 nm and single emission wavelength of 510 nm. The sample interval was 3.5 s, and each well was recorded for 180 s. Fura-2 ratios were calculated in Softmax Pro v5.4; zero baseline was applied, and responses were measured as normalized area under the curve (AUC). Dose inhibition curves were plotted using GraphPad Prism v6 nonlinear regression (three parameter fit) and log IC50 values reported.

mouse P2X7 (mP2X7) = molecular target: T2, mouse P2X7 (mP2X7) (Mus musculus, UniProt Q9Z1M0); experiment: fura-2 intracellular calcium assay on HEK-293 stable cell line expressing mouse P2X7; assay type: cell-based
T2 construct: expressed in transfected cells
T2 sequence (Q9Z1M0 1-595): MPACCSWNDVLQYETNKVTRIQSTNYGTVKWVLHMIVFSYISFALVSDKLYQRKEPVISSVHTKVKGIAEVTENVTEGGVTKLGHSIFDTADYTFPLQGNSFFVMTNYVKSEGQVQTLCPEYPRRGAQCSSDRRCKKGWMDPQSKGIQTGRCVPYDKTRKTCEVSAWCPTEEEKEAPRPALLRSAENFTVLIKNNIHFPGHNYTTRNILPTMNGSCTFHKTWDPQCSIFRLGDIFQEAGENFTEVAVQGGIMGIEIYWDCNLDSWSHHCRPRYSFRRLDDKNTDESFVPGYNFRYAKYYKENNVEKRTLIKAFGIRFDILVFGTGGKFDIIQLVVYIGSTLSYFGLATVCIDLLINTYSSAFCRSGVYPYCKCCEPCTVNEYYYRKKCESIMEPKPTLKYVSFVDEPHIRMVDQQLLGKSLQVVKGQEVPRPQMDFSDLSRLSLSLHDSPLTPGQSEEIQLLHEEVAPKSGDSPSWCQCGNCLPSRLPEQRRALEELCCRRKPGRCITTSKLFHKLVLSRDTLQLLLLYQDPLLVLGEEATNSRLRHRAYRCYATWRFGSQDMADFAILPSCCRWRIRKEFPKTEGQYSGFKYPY
Protocol: as §1, with “Genetically edited HEK-293 cells lacking P2Y2 receptors were used to generate stable cell lines expressing human P2X7 (hP2X7), mouse P2X7 (mP2X7), rat P2X7 (rP2X7), or mutants of the hP2X7 NAM site (F88A, M105A, and F103A). Transfection” for “Transfection”
as §2, with “Dose inhibition curves were plotted using GraphPad Prism v6 nonlinear regression (three parameter fit) and log IC50 values reported.” left out

O=C(NCC1(N2CCN(c3ccccc3)CC2)CCOCC1)c1cccnc1Sc1ccccc1 [JNJ-47965567]
IC50 (F103A hP2X7; F103A hP2X7, agonist ATP, log IC50 ± standard error, read-out: Log IC50 (converted)): 155 nM
IC50 (F103A hP2X7; F103A hP2X7, agonist ATP, mean in brackets, read-out: mean IC50): 161 nM
IC50 (F103A hP2X7; F103A hP2X7, agonist BzATP, mean in brackets, read-out: mean IC50): 59.1 nM
loss in potency (increase in IC50) at F103A relative to WT hP2X7 (F103A hP2X7; F103A hP2X7 vs hP2X7): 10 fold
IC50 (mouse P2X7 (mP2X7); Mouse P2X7 (Table 1), mean in brackets, n = 3): 125 nM
difference between hP2X7 and mP2X7 IC50 values (mouse P2X7 (mP2X7); mP2X7 vs hP2X7): 13 fold
